Test results published in patent publication US7235534B2, “Antisense strategy to modulate estrogen receptor response (ER α and/or ER β )” (Institut de Cardiologie de Montreal, priority 2001, dated 2007).

Key:
p42/44 MAPK = experiment: Western blot of p42/44 MAPK phosphorylation in PAEC; assay type: cell-based, porcine; details: for decrease of p42/44 MAPK phosphorylation induced by 5 min stimulation of 17βE: antagonist 10^−7M 5 min prior to 17βE 10^−8M
Description: Confluent PAEC and PSMC were starved for 7 hours in DMEM and antibiotics. Culture medium was removed, and cells were rinsed twice with ice-cold DMEM. PSMC were incubated on ice in DMEM with or without 17βE (10^−8M) for 30 min, incubated at 37° C. for 5, 10, 15 and 30 min, then brought back on ice. Cell were then rinsed with cold DMEM, incubated on ice in DMEM, bovine serum albumin (1 mg/ml), PDGF-BB (10 ng/ml) for 30 min, incubated at 37° C. for 5 min, and then brought back on ice. […] […] Total proteins were prepared by the addition of 500 μl of lysis buffer containing phenylmethylsulfonyl fluoride 1 mM, leupeptin 10 μg/ml, aprotinin 30 μg/ml, and NaVO3 1 mM (Sigma). Plates were incubated at 4° C. for 30 min and scraped, and the protein concentration was determined with a Bio-Rad protein kit (Bio-Rad, Hercules, Calif.). Same protein quantity for each cell type and condition were dissolved in Laemmli's buffer, boiled for 5 min in reducing conditions, separated by a 10% gradient SDS-PAGE (Protean II kit; Bio-Rad), and transblotted onto a 0.45-μm polyvinylidene difluoride membranes (Millipore Corp., Bedford, Mass.). The membranes were blocked in 5% Blotto-TTBS (5% nonfat dry milk; Bio-Rad), 0.05% Tween 20, 0.15 M NaCl, 25 mM Tris-HCl, pH 7.5) for 1 h at room temperature with gentle agitation and incubated overnight at 4° C. in 0.5% Blotto-TTBS with the addition of an anti-phospho p42/44 MAPK or an anti-phospho p38 MAPK rabbit polyclonal antiserums (α-pp42/44; dilution of 1:10 000, and α-pp38; dilution 1:5000, New England BioLabs, Beverly, Mass.). Membranes were washed with TTBS, and incubated at room temperature with an anti-rabbit IgG antibody coupled to horseradish peroxidase (dilution 1:10 000–1:20 000, Santa Cruz Biotechnology, Santa Cruz, Calif.) in 0.5% Blotto-TTBS for 30 min. […] Kaleidoscope molecular weight and SDS-plyacrylamide gel electrophoresis broad range marker proteins (Bio-Rad) were used as standards for SDS-plyacrylamide gel electrophoresis. Digital image densitometry (PDI Bioscience, Aurora, ON) was performed on x-ray film to determine relative percentages of p42/44 and p38 MAPK phosphorylation.
Confluent PAEC and PSMC were preteated with or without antisense sequences as described above for Western Blot analysis. Cells were rinsed twice with ice-cold DMEM. PSMC and PAEC were stimulated with or without 17βE (10^−8 mol/L) as previously described (Geraldes P). Briefly, PSMC were incubated on ice in DMEM with or without 17βE (10^−8 mol/L) for 30 minutes, incubated at 37° C. for 30 minutes, then brought back on ice. Cells were then rinsed with cold DMEM, incubated on ice in DMEM, bovine serum albumin (1 mg/mL), PDGF-BB (10 ng/mL) for 30 minutes, incubated at 37° C. for 5 and 30 minutes, and then brought back on ice. PAEC were incubated on ice in DMEM with or without 17βE (10^−8 mol/L) for 30 minutes, then incubated at 37° C. for 5 and 30 minutes and brought back on ice. Total proteins were prepared-by the addition of 500 μL of lysis buffer, incubated at 4° C. for 30 minutes and scraped to collect the proteins. Same quantity of protein was separated by a 10% gradient SDS-PAGE (Protean II kit; Bio-Rad), and transblotted onto a 0.45-μm polyvinylidene difluoride membranes (Millipore Corp.). The membranes were blocked for 1 hour at room temperature with gentle agitation and incubated overnight at 4° C. in 0.5% Blotto-TTBS with the addition of an antiphospho p42/44 MAPK or an antiphospho p38 MAPK rabbit polyclonal antiserums (α-pp42/44; dilution of 1:10000, and α-pp38; dilution 1:5 000, New England BioLabs, Beverly, Mass.). Membranes were washed with TTBS, and incubated at room temperature with an anti-rabbit IgG antibody coupled to horseradish peroxidase (dilution 1:10 000–1:20 000, Santa Cruz Biotechnology) in 0.5% Blotto-TTBS for 30 minutes. […] Digital image densitometry (PDI Bioscience) was performed on X-ray film to determine relative phosphorylation of p42/44 and p38 MAPK. […]

[1] = test system: Porcine aortic endothelial cells (PAEC); experiment: Chemotactic assay on PAEC (modified Boyden chamber); assay type: cell-based
Description: Cell migration was evaluated using a modified Boyden 48-well microchamber kit (NeuroProbe, Cabin John, MD.). Near confluent EC and PSMC were rinsed with DMEM and trypsinized. Cells were resuspended in DMEM, 5% FBS, and antibiotics, and a cell count was obtained. […] ER antagonists were added 5 minutes before 17βE. Cells were harvested by trypsinization and resuspended in DMEM, 1% FBS, and antibiotics at a concentration of 5×10^5 cells/ml. […] The two sections of the system were separated by a porous polycarbonate filter (5-μm pores), pre-treated with a gelatine solution (1.5 mg/ml), and assembled. Five hours post incubation at 37° C., the nonmigrated cells were scraped with a plastic policeman, and the migrated cells were stained using a Quick-Diff solution. The filter was then mounted on a glass slide, and migrated cells were counted using a microscope adapted to a video camera to obtain a computer-digitized image.
Cell migration was evaluated using a modified Boyden 48-well microchamber kit (NeuroProbe, Cabin John, MD.). Near confluent PAEC and PSMC were rinsed with DMEM and trypsinized. Cells were resuspended in DMEM, 5% FBS, and antibiotics, and a cell count was obtained. PAEC and PSMC were seeded at 2.5×10^5 cells/well of 6-well tissue culture plates; stimulated for 24 hours in DMEM, 5% FBS, and antibiotics with or without antisense oligomers (10^−6 mol/L) and starved for 48 hours in DMEM, 0.1% FBS, and antibiotics with or without antisense oligomers (10^−6 mol/L daily) with or without 17βE (10^−8 mol/L). Cells were harvested by trypsinization and resuspended in DMEM, 1% FBS, and antibiotics at a concentration of 5×10^5 cells/mL. Fifty μL of this cell suspension with or without antisense oligomers (10^−6 mol/L) treated with or without 17βE (10^−8 mol/L) was added in the higher-chamber of the modified Boyden chamber apparatus, and the lower chamber was filled with DMEM, 1% FBS, antibiotics plus the desired concentration of agonist either 17βE (10^−8 mol/L) or platelet-derived growth factor-BB (PDGF-BB). The 2 sections of the system were separated by a porous polycarbonate filter (5-μm pores size), pretreated with a gelatine solution (1.5 mg/mL), and assembled. Five hours postincubation at 37° C., the non-migrated cells were scraped with a plastic policeman, and the migrated cells were stained using a Quick-Diff solution (Shandon Inc). The filter was then mounted on a glass slide, and migrated cells were counted using a microscope adapted to a video camera to obtain a computer-digitized image.

CC/C(=C(\c1ccccc1)c1ccc(OCCN(C)C)cc1)c1ccccc1 [Tam, Tamoxifen]
decrease of p42/44 MAPK phosphorylation induced by 5 min stimulation of 17βE (p42/44 MAPK): 36%

C[C@]12CC[C@@H]3c4ccc(O)cc4CC[C@H]3[C@@H]1CC[C@@H]2O [17βE, 17-beta-estradiol]
increase of p42/44 MAPK phosphorylation (p42/44 MAPK; 17βE 10^−8M, 5 minutes, Example 1): 1122% | increase of p42/44 MAPK phosphorylation (p42/44 MAPK; 17βE 10^−8M, 10 minutes): 1074% | increase of p42/44 MAPK phosphorylation (p42/44 MAPK; 17βE 10^−8M, 15 minutes): 1420% | increase of p42/44 MAPK phosphorylation (p42/44 MAPK; 17βE 10^−8M, 30 minutes): 1835% | increase of p42/44 MAPK phosphorylation (p42/44 MAPK; 17βE 10^−8 mol/L, 5 minutes, Example 2): 329% | stimulation of PAEC migration as compared to bFGF (10 ng/ml) alone ([1]; 17βE 10^−8M combined with bFGF): 121% | induction of PAEC migration as compared to DMEM 1% ([1]; 17βE 10^−8 mol/L, 5 hours): 4.63 fold

CC/C(=C(\c1ccc(O)cc1)c1ccc(OCCN(C)C)cc1)c1ccccc1 [4-OHT, 4-OH-Tamoxifen]
decrease of p42/44 MAPK phosphorylation induced by 5 min stimulation of 17βE (p42/44 MAPK): 44%

O=C(c1ccc(OCN2CCCCC2)cc1)c1c(-c2ccc(O)cc2)sc2cc(O)ccc12 [Ral, Raloxifen]
decrease of p42/44 MAPK phosphorylation induced by 5 min stimulation of 17βE (p42/44 MAPK): 66%
